Values after ≈ are worked out from the molar mass of the structure shown. Active and inactive are the calls of the source. No cut-off for these calls is given here.
Key:
Mycobacterium leprae [1] = experiment: (§1) Inhibition of Mycobacterium […] A A91V mutant assessed as formation of DNA cleavable complex
Mycobacterium leprae [2] = experiment: Inhibition of Mycobacterium […] B D205N mutant assessed as DNA supercoiling inhibition
Mycobacterium leprae [3] = experiment: Selectivity index, ratio of CC25 for Mycobacterium leprae DNA gyrase subunit A A91V mutant to CC25 for Mycobacterium leprae wild type DNA gyrase A2B2 by DNA cleavage assay
Mycobacterium leprae [4] = experiment: Inhibition of Mycobacterium leprae wild type DNA gyrase A2B2 assessed as formation of DNA cleavable complex
Mycobacterium leprae [5] = experiment: Inhibition of Mycobacterium leprae DNA gyrase subunit A G89C mutant assessed as DNA supercoiling inhibition
Mycobacterium leprae [6] = experiment: Inhibition of Mycobacterium leprae wild type DNA gyrase A2B2 assessed as DNA supercoiling inhibition
Mycobacterium leprae [7] = experiment: Inhibition of Mycobacterium leprae DNA gyrase subunit A A91V mutant assessed as DNA supercoiling inhibition
Mycobacterium leprae [8] = experiment: Selectivity index, ratio of IC50 for Mycobacterium leprae DNA gyrase subunit A A91V mutant to IC50 for Mycobacterium leprae wild type DNA gyrase A2B2
Mycobacterium leprae [9] = experiment: Selectivity index, ratio of IC50 for Mycobacterium leprae DNA gyrase subunit A G89C mutant to IC50 for Mycobacterium leprae wild type DNA gyrase A2B2
[10] = tested on: Mycobacterium leprae [A91V]; experiment: as §1
Mycobacterium leprae [11] = experiment: Inhibition of Mycobacterium […] B D205N mutant assessed as formation of DNA cleavable complex

SMILES | CC25 (Mycobacterium leprae [1]) [µg/mL] | IC50 (Mycobacterium leprae [2]) [µg/mL] | fold change (FC) (Mycobacterium leprae [3]) | CC25 (Mycobacterium leprae [4]) | IC50 (Mycobacterium leprae [5]) [µg/mL] | IC50 (Mycobacterium leprae [6]) [µg/mL] | IC50 (Mycobacterium leprae [7]) [µg/mL] | fold change (FC) (Mycobacterium leprae [8]) | fold change (FC) (Mycobacterium leprae [9]) | CC25 [10] | CC25 (Mycobacterium leprae [11])
C[C@H]1NCc2cc(-c3ccc4c(=O)c(C(=O)O)cn(C5CC5)c4c3OC(F)F)ccc21 [GARENOXACIN] | 17 (≈ 39.9 µM) | 16 (≈ 37.5 µM) | 17 | 1 µg/mL (≈ 2.35 µM) | 5 (≈ 11.7 µM) | 6 (≈ 14.1 µM) | 8 (≈ 18.8 µM) | – | – | – | –
COc1c(N2CCNC(C)C2)c(F)cc2c(=O)c(C(=O)O)cn(C3CC3)c12 (stereo unspecified) [GATIFLOXACIN] | 4 (≈ 10.7 µM) | 4.5 (≈ 12 µM) | 12 | 0.3 µg/mL (≈ 0.799 µM) | 20 (≈ 53.3 µM) | 3.5 (≈ 9.32 µM) | 20 (≈ 53.3 µM) | 5 | – | – | –
COc1c(N2C[C@@H]3CCCN[C@@H]3C2)c(F)cc2c(=O)c(C(=O)O)cn(C3CC3)c12 [MOXIFLOXACIN] | – | – | – | – | 30 (≈ 74.7 µM) | 6 (≈ 14.9 µM) | 25 (≈ 62.3 µM) | 5 | 3 | – | –
CCn1cc(C(=O)O)c(=O)c2ccc(C)nc21 [NALIDIXIC ACID] | – | 600 (≈ 2580 µM) | – | inactive | 150 (≈ 646 µM) | – | 170 (≈ 732 µM) | – | – | inactive | inactive
CO[C@@H]1[C@@H](OC(N)=O)[C@@H](O)[C@H](Oc2ccc3c(O)c(NC(=O)c4ccc(O)c(CC=C(C)C)c4)c(=O)oc3c2C)OC1(C)C [NOVOBIOCIN] | – | 0.3 (≈ 0.49 µM) | – | – | 0.3 (≈ 0.49 µM) | 0.25 (≈ 0.408 µM) | 0.2 (≈ 0.326 µM) | – | – | – | –
CC1COc2c(N3CCN(C)CC3)c(F)cc3c(=O)c(C(=O)O)cn1c23 (stereo unspecified) [OFLOXACIN] | 110 (≈ 304 µM) | 20 (≈ 55.3 µM) | 12 | 9 µg/mL (≈ 24.9 µM) | 160 (≈ 443 µM) | 15 (≈ 41.5 µM) | 80 (≈ 221 µM) | 5 | – | – | 8 µg/mL (≈ 22.1 µM)
CCn1cc(C(=O)O)c(=O)c2cc3c(cc21)OCO3 [OXOLINIC ACID] | – | 700 (≈ 2680 µM) | – | inactive | 180 (≈ 689 µM) | 400 (≈ 1530 µM) | 200 (≈ 766 µM) | – | – | inactive | inactive
